In PMC7144209, “Design, synthesis and anticancer activity of naphthoquinone derivatives” (Journal of Enzyme Inhibition and Medicinal Chemistry, 2020):

What was measured:
[1] = system: L02; test: MTT cell viability assay, L02 cells; assay type: cell-based; details: Homo sapiens, n = 3
[2] = system: U87; test: MTT cell viability assay, U87 cells; assay type: cell-based; details: Homo sapiens, U-87 MG, 48 h, n = 3
Method: (§1) MGC-803, SGC-7901, U87 and SMMC-7721 cell lines were cultured in DMEM supplemented with 10% foetal bovine serum, 100 IU/mL penicillin/streptomycin. The cells were incubated in an atmosphere containing 5% CO2 at 37 °C.
(§2) MGC-803, SGC-7901, U87 and SMMC-7721 cells were plated in 96-well plate at 7000 per well. Cells were incubated with the different concentrations of the compounds for 48 h. Subsequently, MTT (0.5 mg/mL) were used to test the cell viability, then 150 μL DMSO was added to each well after cells were incubated for 4 h and the absorbance was measured at 492 nm.

[3] = system: SMMC-7721; test: MTT cell viability assay, SMMC-7721 cells; assay type: cell-based; details: Homo sapiens, 48 h, n = 3
Method: as §1, §2

[4] = system: MGC-803; test: MTT cell viability assay, MGC-803 cells; assay type: cell-based; details: Homo sapiens, MGC-803, 48 h, n = 3
Method: as §1, §2

[5] = system: SGC-7901; test: MTT cell viability assay, SGC-7901 cells; assay type: cell-based, human; details: Homo sapiens, SGC-7901, 48 h, n = 3
Method: as §1, §2

| SMILES | IC50 [1] | IC50 [2] | melting point | IC50 [3] | IC50 [4] | IC50 [5] |
| --- | --- | --- | --- | --- | --- | --- |
| CC(C)=CCC(OC(=O)CCC(=O)NCCc1ccc(Br)cc1)C1=CC(=O)c2c(O)ccc(O)c2C1=O (stereo not drawn) [Compound 19, 1-(5,8-dihydroxy-1,4-dioxo-1,4-dihydronaphthalen-2-yl)-4-methylpent-3-en-1-yl-4-((4-bromophenethyl)amino)-4-oxobutanoate] | 8.5 ± 0.4 µM | 9.1 ± 2.5 µM | 134 °C | 17.9 ± 1 µM | 5.7 ± 2.4 µM | 7.6 ± 2.3 µM |
| CC(C)=CCC(O)C1=CC(=O)c2c(OCc3ccccc3)ccc(OCc3ccccc3)c2C1=O (stereo not drawn) [Compound 2, 5,8-bis(benzyloxy)-2-(1-hydroxy-4-methylpent-3-en-1-yl)naphthalene-1,4-dione] | > 100 µM | > 100 µM | 60 °C | > 100 µM | > 100 µM | > 100 µM |
| COc1cc(/C=C/CC(=O)OC(CC=C(C)C)C2=CC(=O)c3c(O)ccc(O)c3C2=O)cc(OC)c1OC (stereo not drawn) [Compound 5, 1-(5,8-dihydroxy-1,4-dioxo-1,4-dihydronaphthalen-2-yl)-4-methylpent-3-en-1-yl (E)-4-(3,4,5-trimethoxyphenyl)but-3-enoate] | > 100 µM | > 100 µM | 54 °C | > 100 µM | > 100 µM | > 100 µM |
| CC(C)=CCC(OC(=O)CCC(=O)Nc1ccc(Br)cc1)C1=CC(=O)c2c(O)ccc(O)c2C1=O (stereo not drawn) [Compound 14, 1-(5,8-dihydroxy-1,4-dioxo-1,4-dihydronaphthalen-2-yl)-4-methylpent-3-en-1-yl-4-((4-bromophenyl)amino)-4-oxobutanoate] | 16.2 ± 1.7 µM | > 100 µM | 105 °C | 14.8 ± 0.1 µM | 10.2 ± 1.3 µM | 10.7 ± 1.8 µM |
| CC(C)=CCC(OC(=O)CCC(=O)NCCc1ccccc1F)C1=CC(=O)c2c(O)ccc(O)c2C1=O (stereo not drawn) [Compound 21, 1-(5,8-dihydroxy-1,4-dioxo-1,4-dihydronaphthalen-2-yl)-4-methylpent-3-en-1-yl 4-((2-fluorophenethyl)amino)-4-oxobutanoate] | 16 ± 2.2 µM | 6.1 ± 0.6 µM | 91 °C | 15.4 ± 0.4 µM | 6.9 ± 3.9 µM | 14.8 ± 1.6 µM |
| CC(C)=CCC(OC(=O)COc1ccc(Cl)cc1)C1=CC(=O)c2c(O)ccc(O)c2C1=O (stereo not drawn) [Compound 6, 1-(5,8-dihydroxy-1,4-dioxo-1,4-dihydronaphthalen-2-yl)-4-methylpent-3-en-1-yl-2-(4-chlorophenoxy)acetate] | > 100 µM | > 100 µM | 102 °C | > 100 µM | > 100 µM | > 100 µM |
| CC(C)=CCC(OC(=O)CCC(=O)Nc1cccc2ccccc12)C1=CC(=O)c2c(O)ccc(O)c2C1=O (stereo not drawn) [Compound 16, 1-(5,8-dihydroxy-1,4-dioxo-1,4-dihydronaphthalen-2-yl)-4-methylpent-3-en-1-yl-4-(naphthalen-1-ylamino)-4-oxobutanoate] | 13 ± 2.4 µM | 5.41 ± 0.67 µM | 127 °C | 24.3 ± 1.7 µM | 5.9 ± 2.6 µM | 5.6 ± 2.6 µM |
| COc1ccccc1NC(=O)CCC(=O)OC(CC=C(C)C)C1=CC(=O)c2c(O)ccc(O)c2C1=O (stereo not drawn) [Compound 15, 1-(5,8-dihydroxy-1,4-dioxo-1,4-dihydronaphthalen-2-yl)-4-methylpent-3-en-1-yl-4-((2-methoxyphenyl)amino)-4-oxobutanoate] | > 100 µM | > 100 µM | 113 °C | > 100 µM | > 100 µM | > 100 µM |
| CC(C)=CCC(OC(=O)CCC(=O)N1CCOCC1)C1=CC(=O)c2c(O)ccc(O)c2C1=O (stereo not drawn) [Compound 8, 1-(5,8-dihydroxy-1,4-dioxo-1,4-dihydronaphthalen-2-yl)-4-methylpent-3-en-1-yl 4-morpholino-4-oxobutanoate] | > 50 µM | 10 ± 1.6 µM | 105 °C | 16.7 ± 1.8 µM | 10.4 ± 0.7 µM | 20 ± 3.9 µM |
| COc1ccc(OC)c2c1C(=O)C=C(C(O)CC=C(C)C)C2=O (stereo not drawn) [Compound 1, 2-(1-hydroxy-4-methylpent-3-en-1-yl)-5,8-dimethoxynaphthalene-1,4-dione] | > 100 µM | > 100 µM | 94.3 °C | > 100 µM | > 100 µM | > 100 µM |
| CC(C)=CCC(OC(=O)/C=C\C(=O)N1CCOCC1)C1=CC(=O)c2c(O)ccc(O)c2C1=O (stereo not drawn) [Compound 24, 1-(5,8-dihydroxy-1,4-dioxo-1,4-dihydronaphthalen-2-yl)-4-methylpent-3-en-1-yl (Z)-4-morpholino-4-oxobut-2-enoate] | > 100 µM | 20.6 ± 0.6 µM | 104 °C | 50.1 ± 0.8 µM | 40.8 ± 1.9 µM | 38.5 ± 0.7 µM |
| CC(C)=CCC(OC(=O)CCC(=O)NCCc1ccccc1Cl)C1=CC(=O)c2c(O)ccc(O)c2C1=O (stereo not drawn) [Compound 18, 1-(5,8-dihydroxy-1,4-dioxo-1,4-dihydronaphthalen-2-yl)-4-methylpent-3-en-1-yl-4-((2-chlorophenethyl)amino)-4-oxobutanoate] | 20.2 ± 2 µM | 7.7 ± 4.4 µM | 97.8 °C | 17.9 ± 1.6 µM | 6.6 ± 4.7 µM | 23.7 ± 0.5 µM |
| CCCCCCN(CCCCCC)C(=O)CCC(=O)OC(CC=C(C)C)C1=CC(=O)c2c(O)ccc(O)c2C1=O (stereo not drawn) [Compound 23, 1-(5,8-dihydroxy-1,4-dioxo-1,4-dihydronaphthalen-2-yl)-4-methylpent-3-en-1-yl 4-(dihexylamino)-4-oxobutanoate] | > 100 µM | > 100 µM |  | > 100 µM | > 100 µM | > 100 µM |
| CC(C)=CCC(OC(=O)CCc1ccccc1)C1=CC(=O)c2c(O)ccc(O)c2C1=O (stereo not drawn) [Compound 3, 1-(5,8-dihydroxy-1,4-dioxo-1,4-dihydronaphthalen-2-yl)-4-methylpent-3-en-1-yl-3-phenylpropanoate] | 13.6 ± 1.5 µM | 8 ± 0.85 µM | 60 °C | 15.6 ± 3.3 µM | 4.5 ± 1.1 µM | 10.6 ± 4.3 µM |
| COc1cccc2c1C(=O)c1c(O)c3c(c(O)c1C2=O)C[C@@](O)(C(=O)CO)C[C@@H]3O[C@H]1C[C@H](N)[C@H](O)[C@H](C)O1 [ADM, Adriamycin, reference compound] | > 100 µM | 0.57 ± 0.32 µM |  | 0.46 ± 0.63 µM | 0.48 ± 0.06 µM | 0.72 ± 0.12 µM |
| CCN(CC)C(=O)CCC(=O)OC(CC=C(C)C)C1=CC(=O)c2c(O)ccc(O)c2C1=O (stereo not drawn) [Compound 22, 1-(5,8-dihydroxy-1,4-dioxo-1,4-dihydronaphthalen-2-yl)-4-methylpent-3-en-1-yl 4-(diethylamino)-4-oxobutanoate] | > 50 µM | 40.7 ± 4.7 µM | 77 °C | 46.5 ± 1.7 µM | 9.4 ± 0.4 µM | 19.8 ± 1.8 µM |
| CC(C)=CCC(OC(=O)C=Cc1ccccc1)C1=CC(=O)c2c(O)ccc(O)c2C1=O (stereo not drawn) [Compound 4, 1-(5,8-dihydroxy-1,4-dioxo-1,4-dihydronaphthalen-2-yl)-4-methylpent-3-en-1-yl cinnamate] | > 100 µM | 65.7 ± 2.7 µM | 85 °C |  | > 100 µM | 75.1 ± 0.4 µM |
